# In US10336735B2, “Small molecule inhibitors of fibrosis” (THE CALIFORNIA INSTITUTE FOR BIOMEDICAL RESEARCH, priority 2014, dated 2019):
# Tested on: primary human lung fibroblasts and primary rodent HSCs
# Test: High content imaging assay (α-SMA staining, cell morphology) of fibroblast to myofibroblast transdifferentiation, confirmed by Western blot and RT-PCR
# Conditions: imaging and western based activity
# Method in brief: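 Primary human lung fibroblasts and primary rodent HSCs were serum-starved and then TGF-β-treated to drive transdifferentiation in 384-well format, with SB-431542 as positive control. Readouts were α-SMA immunofluorescence and cell morphology by high-content imaging, confirmed by Western blot and RT-PCR in 4-day, 4-point dose-response assays; EC50 values are graded.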
Compound,"EC50 (Homo sapiens, Fibroblast)",EC50
CCC(C)n1ncn(-c2ccc(N3CCN(c4ccc(OC[C@H]5CO[C@](Cn6nccn6)(c6ccccc6)O5)cc4)CC3)cc2)c1=O (stereo partly shown) [Compound 181],< 0.5 µM,–
"CC[C@@H](C)n1ncn(-c2ccc(N3CCN(c4ccc(OC[C@H]5CO[C@](Cn6nccn6)(c6ccccc6)O5)cc4)CC3)cc2)c1=O [Compound 182, 4-(4-(4-(4-(((2R,4S)-2-((2H-1,2,3-triazol-2-yl)methyl)-2-phenyl-1,3-dioxolan-4-yl)methoxy)phenyl)piperazin-1-yl)phenyl)-(R)-1-sec-butyl-1H-1,2,4-triazol-5(4H)-one]",< 0.5 µM,–
"CC[C@H](C)n1ncn(-c2ccc(N3CCN(c4ccc(OC[C@H]5CO[C@](Cn6nccn6)(c6ccccc6)O5)cc4)CC3)cc2)c1=O [Compound 183, 4-(4-(4-(4-(((2R,4S)-2-((2H-1,2,3-triazol-2-yl)methyl)-2-phenyl-1,3-dioxolan-4-yl)methoxy)phenyl)piperazin-1-yl)phenyl)-(S)-1-sec-butyl-1H-1,2,4-triazol-5(4H)-one]",< 0.5 µM,–
CC[C@@H](C)n1ncn(-c2ccc(N3CCN(c4ccc(OC[C@H]5CO[C@@](Cn6nccn6)(c6ccccc6)O5)cc4)CC3)cc2)c1=O [Compound 184],< 0.5 µM,–
CC[C@H](C)n1ncn(-c2ccc(N3CCN(c4ccc(OC[C@H]5CO[C@@](Cn6nccn6)(c6ccccc6)O5)cc4)CC3)cc2)c1=O [Compound 185],< 0.5 µM,–
CCC(C)n1ncn(-c2ccc(N3CCN(c4ccc(OC[C@@H]5CO[C@](Cn6nccn6)(c6ccccc6)O5)cc4)CC3)cc2)c1=O (stereo partly shown) [Compound 186],5 to 30 µM,–
CCC(C)n1ncn(-c2ccc(N3CCN(c4ccc(OC[C@@H]5CO[C@](Cn6nccn6)(c6ccccc6)O5)cc4)CC3)cc2)c1=O (stereo partly shown) [Compound 187],–,5 to 30 µM
CCC(C)n1ncn(-c2ccc(N3CCN(c4ccc(OC[C@H]5CO[C@@](Cn6nccn6)(c6ccccc6)O5)cc4)CC3)cc2)c1=O (stereo partly shown) [Compound 188],5 to 30 µM,–
CC[C@@H](C)n1ncn(-c2ccc(N3CCN(c4ccc(OC[C@@H]5CO[C@](Cn6nccn6)(c6ccccc6)O5)cc4)CC3)cc2)c1=O [Compound 189],5 to 30 µM,–
CC[C@H](C)n1ncn(-c2ccc(N3CCN(c4ccc(OC[C@@H]5CO[C@](Cn6nccn6)(c6ccccc6)O5)cc4)CC3)cc2)c1=O [Compound 190],0.5 to 5 µM,–
C#CCCCn1ncn(-c2ccc(N3CCN(c4ccc(OC[C@@H]5CO[C@@](Cn6cncn6)(c6ccc(N=[N+]=[N-])cc6)O5)cc4)CC3)cc2)c1=O [Compound 191],0.5 to 5 µM,–
C#Cc1ccc([C@]2(Cn3cncn3)OC[C@@H](COc3ccc(N4CCN(c5ccc(-n6cnn(CCC7(C)N=N7)c6=O)cc5)CC4)cc3)O2)cc1 [Compound 192],0.5 to 5 µM,–
"cis (±)-4-(4-(4-(4-((4-((2H-1,2,3-triazol-2-yl)methyl)-4-(2,4-difluorophenyl)-1,3-dioxolan-2-yl)methoxy)phenyl)piperazin-1-yl)phenyl)-1-sec-butyl-1H-1,2,4-triazol-5(4H)-one [Compound 199]",–,< 0.5 µM
